# Laboratory results taken from US20240216355A1, “PHARMACEUTICAL COMPOSITIONS FOR USE IN THE PREVENTION AND TREATMENT OF A DISEASE OR DISORDER CAUSED BY OR ASSOCIATED WITH ONE OR MORE PREMATURE TERMINATION CODONS” (Monte Rosa Therapeutics, Inc., priority 2021, published 2024).
# Like-named read-outs stand apart in the source and are kept apart here.
# Legend:
# [1] = molecular target: T1, Full length wild-type cereblon CRBN (Homo sapiens, UniProt Q96SW2); test: Fluorescence polarization (FP) assay indicating cereblon binding
# T1 construct: Full length wild-type cereblon CRBN (80.0 nM, 10 μL) was incubated in assay buffer
# T1 sequence (Q96SW2 whole entry): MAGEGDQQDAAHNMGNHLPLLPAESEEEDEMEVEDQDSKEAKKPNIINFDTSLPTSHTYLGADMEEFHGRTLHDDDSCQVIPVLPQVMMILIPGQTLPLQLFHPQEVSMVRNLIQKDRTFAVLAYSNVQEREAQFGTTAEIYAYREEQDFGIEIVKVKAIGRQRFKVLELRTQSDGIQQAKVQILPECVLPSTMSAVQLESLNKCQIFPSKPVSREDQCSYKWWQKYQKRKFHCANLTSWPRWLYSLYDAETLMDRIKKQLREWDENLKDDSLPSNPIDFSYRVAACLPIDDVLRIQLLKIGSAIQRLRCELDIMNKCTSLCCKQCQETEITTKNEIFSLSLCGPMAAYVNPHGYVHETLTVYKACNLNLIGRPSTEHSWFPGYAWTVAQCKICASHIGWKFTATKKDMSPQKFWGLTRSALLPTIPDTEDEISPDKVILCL
# Protocol: Compound activity was monitored in a fluorescence polarization (FP) homogeneous assay using 1-[5-({2-[2-(2-{[2-(2,6-dioxopiperidin-3-yl)-1,3-dioxo-2,3-dihydro-1H-isoindol-4-yl]oxy}acetamido)ethoxy]ethyl}carbamoyl)pentyl]-3,3-dimethyl-2-[(1E,3E)-5-[(2E)-1,3,3-trimethyl-5-sulfo-2,3-dihydro-1H-indol-2-ylidene]penta-1,3-dien-1-yl]-3H-indol-1-ium-5-sulfonate as a fluorescent probe. Unless otherwise stated, all reagents were purchased from Sigma Aldrich. Enzymatic reactions were conducted in Perkin-Elmer Black 384 well ProxiPlate Plus (catalogue no. 6008269) in 10 μL total volume. Full length wild-type cereblon CRBN (80.0 nM, 10 μL) was incubated in assay buffer containing 20 mM HEPES (pH 8.0), […], 0.5 mM TCEP and 0.05% Tween 20 in the presence or absence of compound (300 nL). Inhibitors were stored as 10 mM DMSO stocks in an inert environment (low humidity, dark, low oxygen, room temperature) using the Storage Pod System. Compounds and DMSO were dispensed using the Echo E5XX (Labcyte Inc. USA) to give concentrations from 300 to 0.937 or 3000 to 9.3 nM in a 12 data point curve. […] Following incubation at room temperature for 30 min, the assay was initiated by dispensing the probe to a final concentration of 5 nM (2.5 nL of a 20 μM stock) using the Echo E5XX. FP was measured after a period of 12 hours using a Pherastar plate reader (BMG Labtech, Germany) exciting at 590 nm and measuring the amount of parallel and perpendicular light at 675 nm. The FP signal was subsequently normalized to the no-compound control (i.e., DMSO). Analysis and IC50 values were derived using Dotmatics (Dotmatics UK) software.
# [2] = molecular target: T2, GSPT1 (Homo sapiens, UniProt P15170+Q96SW2); test: GSPT1 degradation immunofluorescence assay in CAL-51 cells; type: cell-based; details: 6 hours treatment
# T2 construct: CAL-51 cells were purchased from DSMZ (cat. Number ACC302); host or cells: CAL-51 cells
# T2 sequence (P15170 whole entry): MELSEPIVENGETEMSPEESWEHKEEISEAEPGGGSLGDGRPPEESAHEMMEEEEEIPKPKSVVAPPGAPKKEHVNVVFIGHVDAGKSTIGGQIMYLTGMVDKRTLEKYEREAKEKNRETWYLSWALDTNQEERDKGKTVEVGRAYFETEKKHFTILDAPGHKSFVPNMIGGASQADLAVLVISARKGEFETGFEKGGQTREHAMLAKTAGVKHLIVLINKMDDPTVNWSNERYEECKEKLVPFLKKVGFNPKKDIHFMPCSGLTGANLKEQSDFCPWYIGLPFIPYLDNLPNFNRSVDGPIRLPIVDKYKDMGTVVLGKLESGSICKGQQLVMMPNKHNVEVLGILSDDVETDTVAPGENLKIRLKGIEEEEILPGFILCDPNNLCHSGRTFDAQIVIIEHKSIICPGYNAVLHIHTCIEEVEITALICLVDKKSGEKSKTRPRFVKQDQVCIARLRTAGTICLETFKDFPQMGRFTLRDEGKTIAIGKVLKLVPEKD
# T2 sequence (Q96SW2 whole entry): as the sequence (Q96SW2 whole entry) above
# T2 sequence (Q16531 whole entry partner): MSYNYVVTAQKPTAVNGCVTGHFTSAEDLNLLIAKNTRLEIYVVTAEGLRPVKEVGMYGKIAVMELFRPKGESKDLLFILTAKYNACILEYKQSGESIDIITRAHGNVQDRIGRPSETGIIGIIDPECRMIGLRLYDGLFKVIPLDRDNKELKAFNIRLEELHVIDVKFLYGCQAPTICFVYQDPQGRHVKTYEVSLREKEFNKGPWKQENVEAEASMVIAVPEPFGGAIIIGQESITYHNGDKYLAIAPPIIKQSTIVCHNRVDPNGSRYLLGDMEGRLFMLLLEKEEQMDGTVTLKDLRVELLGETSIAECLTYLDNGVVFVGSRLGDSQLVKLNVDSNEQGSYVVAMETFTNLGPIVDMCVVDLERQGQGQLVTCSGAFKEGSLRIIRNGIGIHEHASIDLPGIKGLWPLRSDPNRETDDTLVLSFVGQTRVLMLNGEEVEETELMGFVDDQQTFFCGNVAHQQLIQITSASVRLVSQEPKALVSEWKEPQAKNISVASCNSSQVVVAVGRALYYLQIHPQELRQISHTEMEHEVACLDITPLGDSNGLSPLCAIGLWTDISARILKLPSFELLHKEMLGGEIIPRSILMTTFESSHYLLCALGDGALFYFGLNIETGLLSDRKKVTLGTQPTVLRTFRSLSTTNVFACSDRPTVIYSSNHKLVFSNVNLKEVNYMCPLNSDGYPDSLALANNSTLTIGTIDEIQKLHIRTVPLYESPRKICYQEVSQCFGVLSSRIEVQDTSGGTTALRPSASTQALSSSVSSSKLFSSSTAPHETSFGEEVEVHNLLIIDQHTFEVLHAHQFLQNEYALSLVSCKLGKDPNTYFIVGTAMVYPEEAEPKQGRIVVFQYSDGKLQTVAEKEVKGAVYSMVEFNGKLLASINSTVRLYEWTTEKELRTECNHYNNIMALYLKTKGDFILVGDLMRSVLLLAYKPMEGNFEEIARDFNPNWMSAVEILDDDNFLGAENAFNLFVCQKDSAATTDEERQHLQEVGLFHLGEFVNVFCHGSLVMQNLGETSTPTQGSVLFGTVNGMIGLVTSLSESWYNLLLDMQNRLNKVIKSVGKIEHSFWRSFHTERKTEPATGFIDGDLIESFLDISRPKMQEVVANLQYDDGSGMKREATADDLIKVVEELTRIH
# Protocol: CAL-51 cells were purchased from DSMZ (cat. Number ACC302), sub-cultured in 90% Dulbecco's MEM (4.5 g/L glucose, Gibco 11965)+10% heat inactivated FBS (BioConcept, 2-01F1361) and incubated at 37° C., 5% CO2. For the assay, imaging microtiterplate Cell Carrier 96 Ultra (Perkin Elmer 6055302) were pre-coated with Fibronectin (Sigma F085, 30 μl at 0.2 μg/ml) in PBS (100p, Gibco 14190) for 45 min at room temperature, rinsed with PBS and CAL-51 cells (30K cells/well) were plated and let to adhere overnight. Cells were treated with compounds typically using a serial dilution ranging from 30 μM to 0.1 nM for 6 hours. Compounds were stored at 10 mM DMSO stocks. Vehicle (DMSO), positive (CC-885, 10 μM) and rescue controls (positive control plus 0.2 μM bortezomib) were also included at this stage. Cells were subsequently rinsed with PBS and fixed in 10% Formalin solution (50p, Sigma HT5011)) for 20 mins at room temperature. Following three consecutive PBS washes (100 μl), cells were permeabilized in 0.1% Triton X-100 in PBS (Sigma 93443, 50 μl) for 15 mins at room temperature. Following three further PBS washes, 50 μl blocking buffer (1% BSA, Sigma A4503, in PBS) was added for 45 min for signal-to-noise reduction. Primary antibody (human GSPT1, Sigma HPA052488) was diluted in blocking buffer (dil.1/300, 35 μl/well) and incubated with the cells overnight at 4° C. After three PBS washes, Alexa-fluor 488 coupled secondary antibodies (Invitrogen, A32731, dil. 1/1000), Alexa-fluor 647-Phalloïdin (Invitrogen, A22287, dil. 1/200) and DAPI (Thermo, #62248, dil.1/1000) were diluted in blocking buffer and incubated with the samples for 2 hours at room temperature. After three final PBS washes, samples were conserved in 100 μl PBS in the dark, until measurement. Image acquisition was performed on the Operetta High-Content Imager (Perkin-Elmer). Fluorescence intensity of Alexa-Fluor 488 (GSPT1), Alexa-Fluor 647 (Actin) and DAPI (Nucleus) were measured. For the determination of GSPT1 DC50 values, a custom algorithm implemented in the PerkinElmer image analysis software Harmony-Acapella@ was developed. After user-defined setting of adjustment parameters, the analysis was run identically without human intervention for all image fields. DAPI staining of the nuclei was used to determine the location of cells using standard nuclei detection modules. Segmentation artifacts were removed by threshold-based filters for area, roundness and intensity. The outline of the cells was determined analogously from the sum of the normalized, smoothed DAPI and Actin channel, starting from each nucleus.
# The Alexa-Fluor 488 (GSPT1) signal intensity in each cell was finally measured, in order to obtain a Mean intensity per cell. GSPT1 degradation (DC50) was calculated after normalization to controls and data import in CDD vault Database, using non-linear regression.
# [3] = tested on: HBE16 cells; test: Killing activity (EC10) in HBE16 cells after 72 hr; type: cell-based, human
# [4] = tested on: G542X cystic fibrosis transmembrane conductance regulator (CFTR) nonsense mutation; test: HaloTag G542X 5×5 NanoLuc reporter assay (CFTR readthrough) in HBE16 cells; type: cell-based, human
# Protocol: FIG. 3A, FIG. 3B, and FIG. 3C show the effect of a representative compound of the disclosure on CFTR readthrough: Readthrough of the common G542X cystic fibrosis transmembrane conductance regulator (CFTR) nonsense mutation was carried out in the immortalized human bronchial epithelial cells HBE16. A HaloTag G542X 5×5 NanoLuc reporter assay was established in that cell line containing the CFTR readthrough cassette bearing the G542X codon as well as 5 codons upstream and downstream from the human CFTR sequence. […] The total protein assay (C) indicates no significant decrease of HBE16 cell viability following treated with the representative compound of the disclosure alone or in combination with G418 (y-axis left indicating protein μg/μL, and y-axis right indicating %).
# The total protein assay (C) indicates no significant decrease of HBE16 cell viability following treated with the representative compound of the disclosure alone or in combination with ELX-02 (y-axis left indicating protein μg/μL, and y-axis right indicating %).
# [5] = compounds 201 to 307, read-out: Activity for GSPT1 degradation (DC50 code)
# [6] = compounds 1 to 165, read-out: Activity for GSPT1 degradation (DC50 code)
Compound,IC50 [1] [nM],"DC50 [2, 5] [nM]",also measured
O=C1CCC(N2Cc3ccc(COC(=O)Nc4ccc5c(c4)OCCC5)cc3C2=O)C(=O)N1 (centres unmarked) [Compound 292],< 1100,< 30,–
CC1CCCCN1c1ccc(NC(=O)OCc2ccc3c(c2)C(=O)N(C2CCC(=O)NC2=O)C3)cn1 (centres unmarked) [Compound 277],< 1100,< 30,–
Cc1c(Cl)cc(NC(=O)OCc2ccc3c(c2)C(=O)N(C2CCC(=O)NC2=O)C3)cc1OC1CCN(C)C1 (centres unmarked) [Compound 268],< 1100,< 30,–
C[C@@H](N)[C@H]1O[C@@H](O[C@@H]2[C@@H](O)[C@H](N)C[C@H](N)[C@H]2O[C@H]2O[C@H]([C@@H](C)O)[C@@H](O)[C@H](O)[C@H]2N)[C@H](O)[C@@H]1O [ELX-02],–,–,"EC10 (concentration resulting in 10% killing activity) [3]: 85000 nM; EC50 [4]: 250000 nM; EC10 (readthrough activity, NanoLuc) ([4]; concentration used in combination): 85000 nM"
O=C1CCC(N2Cc3ccc(COC(=O)Nc4ccc(N5CCCCC5)nc4)cc3C2=O)C(=O)N1 (centres unmarked) [Compound 215],< 1100,< 30,–
Cc1c(Cl)cc(NC(=O)OCc2ccc3c(c2)C(=O)N(C2CCC(=O)NC2=O)C3)cc1CN1CCOCC1 (centres unmarked) [Compound 202],< 1100,< 30,–
CC1(C)COc2cc(NC(=O)OCc3ccc4c(c3)C(=O)N(C3CCC(=O)NC3=O)C4)ccc21 (centres unmarked) [Compound 283],< 1100,< 30,–
Cc1c(Cl)cc(NC(=O)NCc2ccc3c(c2)C(=O)N(C2CCC(=O)NC2=O)C3)cc1CN1CCN2CCC1C2 (centres unmarked) [Compound 154],< 1100,–,"DC50 [2, 6]: > 300 nM"
Cc1ccc(NC(=O)OCc2ccc3c(c2)C(=O)N(C2CCC(=O)NC2=O)C3)cc1OC(F)F (centres unmarked) [Compound 224],< 1100,< 30,–
Cc1c(Cl)cc(NC(=O)NCc2ccc3c(c2)C(=O)N(C2CCC(=O)NC2=O)C3)cc1CC1COCCN1C (centres unmarked) [Compound 160],< 1100,–,"DC50 [2, 6]: ≤ 100 nM"
O=C1CCC(N2Cc3ccc(COC(=O)Nc4ccc(C5CC5)cc4)cc3C2=O)C(=O)N1 (centres unmarked) [Compound 239],< 1100,< 30,–
Cc1cc(C)cc(NC(=O)OCc2ccc3c(c2)C(=O)N(C2CCC(=O)NC2=O)C3)c1 (centres unmarked) [Compound 208],< 1100,< 30,–
Cc1ncc(NC(=O)OCc2ccc3c(c2)C(=O)N(C2CCC(=O)NC2=O)C3)cc1Cl (centres unmarked) [Compound 206],< 1100,< 30,–
COc1ccccc1CNC(=O)NCc1ccc2c(c1)C(=O)N(C1CCC(=O)NC1=O)C2 (centres unmarked) [Compound 60],< 1100,–,"DC50 [2, 6]: > 300 nM"
Cc1cc(NC(=O)OCc2ccc3c(c2)C(=O)N(C2CCC(=O)NC2=O)C3)cnc1-c1ccccc1 (centres unmarked) [Compound 288],< 1100,< 30,–
COc1ccc(CCNC(=O)NCc2ccc3c(c2)C(=O)N(C2CCC(=O)NC2=O)C3)cc1 (centres unmarked) [Compound 51],< 1100,–,"DC50 [2, 6]: > 300 nM"
Cc1ncc(NC(=O)OCc2ccc3c(c2)C(=O)N(C2CCC(=O)NC2=O)C3)cc1OC(F)(F)F (centres unmarked) [Compound 291],< 1100,< 30,–
CC1(c2ccc(NC(=O)OCc3ccc4c(c3)C(=O)N(C3CCC(=O)NC3=O)C4)cc2)CC1 (centres unmarked) [Compound 258],< 1100,< 30,–
COc1ccccc1-c1ccc(NC(=O)OCc2ccc3c(c2)C(=O)N(C2CCC(=O)NC2=O)C3)cn1 (centres unmarked) [Compound 287],< 1100,< 30,–
Cc1c(Cl)cc(NC(=O)NCc2ccc3c(c2)C(=O)N(C2CCC(=O)NC2=O)C3)cc1CN1CC2CCC(C1)O2 (centres unmarked) [Compound 140],< 1100,–,"DC50 [2, 6]: ≤ 100 nM"
Cc1c(CN2CCOCC2)cc(NC(=O)OCc2ccc3c(c2)C(=O)N(C2CCC(=O)NC2=O)C3)cc1OC(F)F (centres unmarked) [Compound 225],< 1100,< 30,–
CCc1cc(NC(=O)OCc2ccc3c(c2)C(=O)N(C2CCC(=O)NC2=O)C3)cnc1C (centres unmarked) [Compound 255],< 1100,< 30,–
Cc1c(F)cc(NC(=O)OCc2ccc3c(c2)C(=O)N(C2CCC(=O)NC2=O)C3)cc1CN1CCOCC1 (centres unmarked) [Compound 241],< 1100,< 30,–
